Measurements taken from patent US20030119826A1, “Neuroprotective treatment methods using selective iNOS inhibitors” (Pharmacia Corporation, priority 2001, published 2003).
pIC50: −log10 of the molar value. Where a name gives a salt, the structure may show the parent alone. Read-outs that look alike come from different tables or passages of the source.

Tests used:
[1] = tested on: LPS-induced increase in plasma nitrite/nitrate levels; assay: Endotoxin (LPS)-treated rats, plasma nitrite/nitrate levels; assay type: in vivo, rat; conditions: oral administration, plasma nitrite/nitrate 5 hours post-treatment
Description: Plasma nitrite/nitrate levels can be determined 5 hours post-treatment.

[2] = tested on: retinal ganglion cells; conditions: rats with chronic moderately elevated IOP, cited from earlier work
[3] = tested on: Human Cartilage explants, IL-1β-induced nitric oxide synthase (nitrite production); assay: Human cartilage explant assay (nitrite production, IL-1β induced); assay type: cell-based; conditions: inhibition of nitrite production, IL-1β stimulated explants
Description: Bone pieces are rinsed twice with Dulbecco's Phosphate Buffered Saline (GibcoBRL) and once with Dulbecco's Modified Eagles Medium (GibcoBRL) and placed into a petri dish with phenol red free Minimum Essential Medium (MEM) (GibcoBRL). Cartilage was cut into small explants of approximately 15-45 mg in weight and one or two explants per well are placed into either 96 or 48 well culture plates with 200-500 μL of culture media per well. The culture media was either a custom modification of Minimum Essential Medium(Eagle) with Earle's salts (GibcoBRL) prepared without L-Arginine, without L-Glutamine and without phenol red or a custom modification of serumless Neuman and Tytell (GibcoBRL) medium prepared without L-arginine, without insulin, without ascorbic acid, without L-glutamine and without phenol red. Both are supplemented before use with 100 μM L-Arginine (Sigma), 2 mM L-glutamine, 1X HL-1 supplement (BioWhittaker), […] ascorbic acid (Sigma) and 150 pg/ml recombinant human IL-1β (RD Systems) to induce nitric oxide synthase. Compounds are then added in 10 μL aliquots and the explants incubated at 37° C. with 5% CO2 for 18-24 hours. The day old supernatant is then discarded and replaced with fresh culture media containing recombinant human IL-1β and compound and incubated for another 20-24 hours. […] All samples are done in quadruplicate. Unstimulated controls are cultured in media in the absence of recombinant human IL-1β. IC50 values (Table I)are determined from plotting the percent inhibition of nitrite production at six different concentrations of inhibitor.

[4] = Rattus norvegicus, read-out: ED50

| Compound | ED50 [1, 4] [mg/kg] | pIC50 ([3]; Homo sapiens) | other results |
| --- | --- | --- | --- |
| CC(=NO)NC/C(F)=C\CC[C@H](N)C(=O)O [Example G, (2S,5E)-2-amino-6-fluoro-7-[(1-hydroximinoethyl)amino]-5-heptenoic acid] | < 0.1 | – | melting point: 198 to 200 °C |
| N=C(N)NN [aminoguanidine] | – | – | neuroprotection / loss of retinal ganglion cells [2]: blocks loss of retinal ganglion cells; neuroprotection / loss of retinal ganglion cells ([2]; listed as Aminoguanidine): provide neuroprotection to retinal ganglion cells |
| CC(=N)NCC(F)=CCC[C@H](N)C(=O)O (mixture of isomers) [Example B, (2S,5E/Z)-2-amino-6-fluoro-7-[(1-iminoethyl)amino]-5-heptenoic acid, dihydrochloride] | – | 6.70 | – |
| N=C1CCCC[C@@H](CCCC[C@H](N)C(=O)O)N1 [Example W, ([…]S,2R)-[…]-aminohexahydro-7-imino-1H-azepine-2-hexanoic acid, trihydrate hydrochloride] | > 10 | < 4.52 | – |
| N=C1CCCC[C@H](CCCC[C@@H](N)C(=O)O)N1 [Example Y, ([…]R,2S)-[…]-aminohexahydro-7-imino-1H-azepine-2-hexanoic acid, trihydrate hydrochloride] | – | – | pIC50 [3]: > 5.00 |
| CC(=N)NC/C(F)=C\CC[C@H](N)C(=O)O [Example A, (2S,5E)-2-amino-6-fluoro-7-[(1-iminoethyl)amino]-5-heptenoic acid, dihydrochloride, monohydrate] | < 0.1 | 7.00 | ED50 ([1]; dihydrochloride, monohydrate): <0.1 mg/kg |
| COC[C@](N)(CSCCNC(C)=N)C(=O)O [Example J, 2-[[[2-[(1-Iminoethyl)amino]ethyl]thio]methyl]-O-methyl-D-serine, dihydrochloride] | – | – | pIC50 [3]: 5.09 |
| CC(=N)NC/C=C\CC[C@](C)(N)C(=O)O.Cl.Cl [Example LL, (2S,5Z)-2-amino-2-methyl-7-[(1-iminoethyl)amino]-5-heptenoic acid, dihydrochloride] | 0.3 | 6.10 | – |
| CC(=N)NC/C(F)=C\CC[C@H](N)C(=O)Nc1nnn[nH]1 [Example H, (2S,5E)-2-amino-6-fluoro-7-[(1-iminoethyl)amino]-N-(1H-tetrazol-5-yl) 5-heptenamide, dihydrochloride] | < 0.3 | – | – |
| N=C1CCCC[C@H](CCCC[C@H](N)C(=O)O)N1 [Example X, ([…]S,2S)-[…]-aminohexahydro-7-imino-1H-azepine-2-hexanoic acid, trihydrate hydrochloride] | – | > 5.00 | – |
| CC(=N)NC/C(F)=C\CC[C@](C)(N)C(=O)O.Cl.Cl [Example HH, (2S,5E)-2-amino-2-methyl-6-fluoro-7-[(1-iminoethyl)amino]-5-heptenoic acid, dihydrochloride] | 0.4 | 6.40 | – |
| N=C1CCCC[C@H](CCCC[C@@H](N)C(=O)O)N1 [Example V, ([…]R,2S)-[…]-aminohexahydro-7-imino-1H-azepine-2-hexanoic acid, trihydrate hydrochloride] | < 3 | > 5.00 | – |
| CC(=N)NC/C(F)=C/CC[C@H](N)C(=O)O [Example D, (2S,5Z)-2-amino-6-fluoro-7-[(1-iminoethyl)amino]-5-heptenoic acid, trihydrochloride, dihydrate] | > 10 | 5.60 | – |
